Source: patent US6855730B2, “3-methylidenyl-2-indolinone modulators of protein kinase” (Sugen, Inc., priority 1998, dated 2005)

Molecular target: T1, chimeric receptor having the extra-cellular domain of EGF-R and the intra-cellular domain of Her2 (Homo sapiens, UniProt P04626)
T1 construct: fused on or other part: the same chimera
Assay: EGF-induced Her2-driven BrdU incorporation
Format: cell-based
Details: read-out: BrdU HER 2 driven IC50
Method: The cellular/catalytic assays described herein are performed in an ELISA format. The general procedure is as follows: a compound is introduced to cells expressing the test kinase, either naturally or recombinantly, for a selected period of time after which, if the test kinase is a receptor, a ligand known to activate the receptor is added. The cells are lysed and the lysate is transferred to the wells of an ELISA plate previously coated with a specific antibody recognizing the substrate of the enzymatic phosphorylation reaction. Non-substrate components of the cell lysate are washed away and the amount of phosphorylation on the substrate is detected with an antibody specifically recognizing phosphotyrosine compared with control cells that were not contacted with a test compound. The cellular/biologic assays described herein measure the amount of DNA made in response to activation of a test kinase, which is a general measure of a proliferative response. The general procedure for this assay is as follows: a compound is introduced to cells expressing the test kinase, either naturally or recombinantly, for a selected period of time after which, if the test kinase is a receptor, a ligand known to activate the receptor is added. After incubation at least overnight, a DNA labeling reagent such as Bromodeoxyuridine (BrdU) or 3H-thymidine is added. The amount of labeled DNA is detected with either an anti-BrdU antibody or by measuring radioactivity and is compared to control cells not contacted with a test compound.
EGF-Induced Her2-Driven BrdU Incorporation
Protocol • (1) Cells-are seeded at 8000 cells/well in DMEM, 10% CS, 2mM Gln in a 96-well plate. Cells are incubated overnight at 37° C. in 5% CO2. • (2) After 24 hours, the cells are washed with PBS, and then are serum starved in serum free medium (0% CS DMEM with 0.1% BSA) for 24 hours. • (3) On day 3, ligand (EGF=2 nM, prepared in DMEM with 0.1% BSA) and test compounds are added to the cells simultaneously. The negative control wells receive serum free DMEM with 0.1% BSA only, the positive control cells receive the ligand (EGF) but no test compound. Test compounds are prepared in serum free DMEM with ligand in a 96 well plate, and serially diluted for 7 test concentrations. • (4) After 20 hours of ligand activation, diluted BrdU labeling reagent (1:100 in DMEM, 0.1% BSA) is added and the cells are incubated with BrdU (final concentration=10 μM) for 1.5 hours. • (5) After incubation with labeling reagent, the medium is removed by decanting and tapping the inverted plate on a paper towel. FixDenat solution is added (50 μl/well) and the plates are incubated at room temperature for 45 minutes on a plate shaker. • (6) The FixDenat solution is thoroughly removed by decanting and tapping the inverted plate on a paper towel. Milk is added (5% dehydrated milk in PBS, 200 μ/well) as a blocking solution and the plate is incubated for 30 minutes at room temperature on a plate shaker. • (7) The blocking solution is removed by decanting and the wells are washed once with PBS. Anti-BrdU-POD solution (1:100 dilution in PBS, 1% BSA) is added (100 μl/well) and the plate is incubated for 90 minutes at room temperature on a plate shaker. • (8) The antibody conjugate is thoroughly removed by decanting and rinsing the wells 5 times with PBS, and the plate is dried by inverting and tapping on a paper towel. • (9) TMB substrate solution is added (100 μl/well) and incubated for 20 minutes at room temperature on a plate shaker until color development is sufficient for photometric detection. • (10) The absorbance of the samples are measured at 410 nm (in “dual wavelength” mode with a filter reading at 490 nm, as a reference wavelength) on a Dynatech ELISA plate reader.

T1 sequence (P04626 676-1255 limits assumed, change not shown): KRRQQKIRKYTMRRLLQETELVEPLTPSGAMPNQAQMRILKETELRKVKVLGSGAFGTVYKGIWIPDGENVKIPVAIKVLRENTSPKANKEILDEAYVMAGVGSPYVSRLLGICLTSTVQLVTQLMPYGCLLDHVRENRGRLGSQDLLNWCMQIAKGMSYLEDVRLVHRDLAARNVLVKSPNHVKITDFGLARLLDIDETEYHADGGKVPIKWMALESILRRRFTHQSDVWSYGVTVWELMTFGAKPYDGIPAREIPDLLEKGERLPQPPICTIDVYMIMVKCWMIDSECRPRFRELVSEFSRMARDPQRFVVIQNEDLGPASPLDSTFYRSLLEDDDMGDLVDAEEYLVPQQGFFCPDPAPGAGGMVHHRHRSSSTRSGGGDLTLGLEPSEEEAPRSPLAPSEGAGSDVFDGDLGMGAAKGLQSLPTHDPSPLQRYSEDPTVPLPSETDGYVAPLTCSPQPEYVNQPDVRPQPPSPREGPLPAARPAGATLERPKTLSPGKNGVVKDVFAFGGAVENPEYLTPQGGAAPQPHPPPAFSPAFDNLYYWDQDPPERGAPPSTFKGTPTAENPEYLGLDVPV

Structure (SMILES) | IC50 [µM]
COc1ccc(/C=C2/C(=O)Nc3cc(NC(C)=O)ccc32)cc1-c1cccs1 [Example 31, N-[3-(4-Methoxy-3-thiophen-2-ylbenzylidene)-2-oxo-2,3-dihydro-1H-indol-6-yl]-acetamide] | 28.7
CC1(C)CCc2cc(/C=C3/C(=O)Nc4ccc(F)cc43)ccc2O1 [Example 23, 3-(2,2-Dimethylchroman-6-ylmethylene)-5-fluoro-1,3-dihydroindol-2-one] | 27.1
COc1cc(C=C2C(=O)Nc3ccccc32)c(-c2ccccc2OC)cc1OC [Example 49, 3-(4,5,2′-Trimethoxybiphenyl-2-ylmethylene)-1,3-dihydroindol-2-one] | 9.1
COc1ccc(/C=C2/C(=O)Nc3ccccc32)cc1-c1ccsc1 [Example 35, 3-(4-Methoxy-3-thiophen-3-ylbenzylidene)-1,3-dihydroindol-2-one] | 13.8

Results, then the molecule that gave them:

IC50 [µM] | Structure (SMILES)
15.7 | COc1c(C(C)C)cc(/C=C2/C(=O)Nc3ccc(N)cc32)cc1C(C)C [Example 20, 5-Amino-3-(3,5-diisopropyl-4-methoxy-benzylidene)-1,3-dihydroindol-2-one]
3.3 | COc1c(C(C)C)cc(/C=C2/C(=O)Nc3ccc(C)cc32)cc1C(C)C [Example 19, 3-(3,5-Diisopropyl-4-methoxybenzylidene)-5-methyl-1,3-dihydroindol-2-one]
9.6 | CC(C)c1cc(/C=C2/C(=O)Nc3ccc(Br)cc32)cc(C(C)C)c1OCCN1CCOCC1 [Example 57, 5-Bromo-3-[3,5-diisopropyl-4-(2-morpholin-4-ylethoxy)benzylidene]-1,3-dihydroindol-2-one]
23.4 | COc1cc(C)c(C=C2C(=O)Nc3cc(NC(C)=O)ccc32)cc1C(C)C [Example 27, N-[3-(5-Isopropyl-4-methoxy-2-methyl-benzylidene)-2-oxo-2,3-dihydro-1H-indol-6-yl]-acetamide]
22.6 | CC(=O)Nc1ccc2c(c1)NC(=O)/C2=C/c1ccc(OCCN2CCOCC2)c(-c2cccs2)c1 [Example 40, N-{3-[4-(2-Morpholin-4-ylethoxy)-3-thiophen-2-ylbenzylidene]-2-oxo-2,3-dihydro-1H-indol-6-yl}-acetamide]
